Consider one compound from patent US20040235932A1, “Ophthalmic pharmaceutical compositions” (priority 2001, published 2004).

Entries after “also recorded” stand apart in the source; their conditions may differ.

In assay [1] the test system is Dutch male colored rabbits. Description: Activity to reduce intraocular pressure on continuous eye drop administration in rabbits. Format: in vivo, rabbit. Conditions: for Difference in intraocular pressure after the administration: 0.03% eye drop, test eye vs control eye, mean±S.E. On the procedure:
KRG-3332 as prepared in Reference Example 2 was dissolved in physiological saline to prepare a 0.01% solution, which was used as test solution 1 (0.01% eye drop) in the following method for determining the activity to reduce intraocular pressure. […] For the administration of eye drop, each 50 ρL of the test solution and the control (physiological saline) was administered to one eye and the other eye respectively, twice a day (11:00 and 19:00), and the administration continued for up to 57 days. The corneal surfaces of the animals were anaesthetized with 0.4% oxybuprocaine hydrochloride eye drop to, and the intraocular pressure was determined at time points of 11:00 (before the administration), 13:00(2 hours after the administration), 15:00 (4 hours after the administration) and 19:00 (8 hours after the administration, immediately before the second administration) one day before the administration and thereafter every week using an air applanation ophthalmotonometer (ALCON JAPAN LTD.). Average (mean±S.E.) of the difference between the intraocular pressures of eyes administered with the test solution and the control as determined at each time point, and the relevant t-test results were estimated. KRG-3332 was dissolved in physiological saline to prepare a 0.1% solution, which was used as test solution 2 (0.1% eye drop) in the determination of the activity to reduce intraocular pressure in a similar manner to above (1). For the comparison, bunazosin hydrochloride was dissolved in physiological saline to prepare a 0.03% solution, which was used as test solution 3 (reference drug, 0.03% eye drop of bunazosin hydrochloride) in the determination of the activity to reduce intraocular pressure in a similar manner to above (1) and (2).

In assay [2] the test system is patients suffering from primary closed angle glaucoma and ocular hypertension. Conditions: 0.05% eye drop, continuous administration; cited from earlier work.
In a further assay the target is T1, human variant α1 A-AR (Homo sapiens, UniProt P35348, A271T).
T1 sequence (P35348 1-466 A271T): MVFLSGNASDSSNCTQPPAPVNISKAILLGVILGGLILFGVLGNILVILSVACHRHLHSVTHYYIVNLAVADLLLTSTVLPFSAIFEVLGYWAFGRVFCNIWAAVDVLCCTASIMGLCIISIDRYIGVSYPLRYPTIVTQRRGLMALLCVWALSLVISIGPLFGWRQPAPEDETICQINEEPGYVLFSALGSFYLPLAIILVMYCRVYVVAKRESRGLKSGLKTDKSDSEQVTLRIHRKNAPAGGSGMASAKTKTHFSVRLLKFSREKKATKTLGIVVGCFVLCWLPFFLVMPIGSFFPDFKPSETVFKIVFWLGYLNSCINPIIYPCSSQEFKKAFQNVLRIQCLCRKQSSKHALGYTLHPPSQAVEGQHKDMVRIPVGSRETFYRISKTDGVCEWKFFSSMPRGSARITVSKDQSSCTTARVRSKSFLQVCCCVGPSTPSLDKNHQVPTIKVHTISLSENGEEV
As to the kind of experiment: Effects on expression level of α1 A-AR in CHO cells expressing variant α1 A-AR ([3H]-prazosin binding to membrane fractions). Conditions: CHO cells expressing variant α1 A-AR cultured 48 hours with test drug 10^−8 M (mixture: each 10^−8 M).

Protocol for human variant α1 A-AR: The wild or variant α1 A-AR gene was incorporated into mammalian expression vector pCR3 (Invitrogen Inc.) using restriction enzyme EcoRI, and the vector was transfected into CHO cells with Lipofectamin (GIBCO Inc.).
The membrane fractions (about 20 μg protein/tube) were incubated in the presence of [^3 H]-prazosin (NEN Inc.) (30 to 200 μM) at 30° C. for 45 minutes, and then harvested on GF/C filter (Whatman Inc.) using a cell collecting apparatus (m-36T, Brandel Inc.). The filter was washed with 50 mM Tris-HCl buffer (pH7.4) several times, and then the radioactivity bound on the membrane was determined using a liquid scintillation counter. […] The experimental data was analyzed using nonlinear approximate program PRISM (trade mark) (Graphpad Software Inc.) to calculate the expression level of the receptor.

In the case of `CCCC(=O)N1CCCN(c2nc(N)c3cc(OC)c(OC)cc3n2)CC1.Cl` [bunazosin hydrochloride, 1-(4-amino-6,7-dimethoxy-2-quinazolinyl)-4-butyrylhexahydro-1H-1,4-diazepin hydrochloride, reference compound], in assay [1] (0.03% eye drop twice a day, up to 29th day, hydrochloride), the “development of drug resistance (change in activity to reduce intraocular pressure by continuous administration)” value is “any difference from the eyes administered with the control was hardly observed on the 22nd day; also recorded: any reduction in intraocular pressure was hardly observed on the 22nd day”. The “Difference in intraocular pressure after the administration” value (“Difference in intraocular pressure” below) was 0.700 ± 0.320 mmHg in assay [1] (1st day, 0 hours after the administration); −1.700 ± 1.452 mmHg in assay [1] (1st day, 4 hours after the administration); 0.150 ± 0.947 mmHg in assay [1] (1st day, 8 hours after the administration); 0.600 ± 0.579 mmHg in assay [1] (8th day, 0 hours after the administration); −0.950 ± 1.176 mmHg in assay [1] (8th day, 4 hours after the administration); −0.350 ± 0.430 mmHg in assay [1] (8th day, 8 hours after the administration). Further, the “Difference in intraocular pressure” value is 0.100 ± 0.562 mmHg in assay [1] (15th day, 0 hours after the administration); −1.450 ± 0.804 mmHg in assay [1] (15th day, 2 hours after the administration); −0.250 ± 0.494 mmHg in assay [1] (15th day, 4 hours after the administration); −0.100 ± 0.150 mmHg in assay [1] (15th day, 8 hours after the administration); −0.050 ± 0.567 mmHg in assay [1] (22nd day, 0 hours after the administration); −0.250 ± 0.576 mmHg in assay [1] (22nd day, 2 hours after the administration). In addition, the “Difference in intraocular pressure” value in assay [1] (22nd day, 4 hours after the administration) is −0.200 ± 0.330 mmHg; in assay [1] (22nd day, 8 hours after the administration) it was 0.350 ± 0.150 mmHg; in assay [1] (29th day, 0 hours after the administration), 0.300 ± 1.011 mmHg; in assay [1] (29th day, 2 hours after the administration) it was −0.250 ± 0.652 mmHg; in assay [1] (29th day, 4 hours after the administration), −0.500 ± 0.306 mmHg; in assay [1] (29th day, 8 hours after the administration) it was −0.200 ± 0.289 mmHg. Also, in assay [2], the “attenuation in activity to reduce intraocular pressure” value was “initiate the attenuation in an activity to reduce intraocular pressure after 4-weeks continuous administration”. The “expression level of the α1 A-AR (receptor levels)” value on human variant α1 A-AR is given as “induced the increase in the receptor levels about three times compared to the treatment with KRG-3333”.
